ChEMBL document CHEMBL1909046, “DrugMatrix in vitro pharmacology data”
*1 amine or outer side, *2 acyl side, *3 side chain or, on linkers, in order; H or OH if unused. Where a SMILES comes first, the peptide text is derived from it. Bridges are numbered along the chain shown (N, C = ends). Roman numbers before positions name the chains, in order. [ ]: non-standard residue; d: D form. Actinocin(1to9) = Cc1c2oc3c(C)ccc(C(=O)[*:2])c3nc-2c(C(=O)[*:1])c(N)c1=O; NMeV = CN[C@H](C(=O)O)C(C)C; Sar = CNCC(=O)O

Legend:
[1] = DRUGMATRIX: beta-Lactamase enzyme inhibition (substrate: Nitrocefin); design: species or system Bacillus cereus; conditions: Not Active = under 50% inhibition at 10 µM
[2] = biological target: Sodium-dependent dopamine transporter (Homo sapiens, UniProt Q01959); test: DRUGMATRIX: Dopamine Transporter radioligand binding (ligand: [125I] RTI-55); format: cell membranes, CHO-K1, Membrane; conditions: Not Active = under 50% inhibition at 10 µM
Sodium-dependent dopamine transporter, sequence (Q01959 whole entry): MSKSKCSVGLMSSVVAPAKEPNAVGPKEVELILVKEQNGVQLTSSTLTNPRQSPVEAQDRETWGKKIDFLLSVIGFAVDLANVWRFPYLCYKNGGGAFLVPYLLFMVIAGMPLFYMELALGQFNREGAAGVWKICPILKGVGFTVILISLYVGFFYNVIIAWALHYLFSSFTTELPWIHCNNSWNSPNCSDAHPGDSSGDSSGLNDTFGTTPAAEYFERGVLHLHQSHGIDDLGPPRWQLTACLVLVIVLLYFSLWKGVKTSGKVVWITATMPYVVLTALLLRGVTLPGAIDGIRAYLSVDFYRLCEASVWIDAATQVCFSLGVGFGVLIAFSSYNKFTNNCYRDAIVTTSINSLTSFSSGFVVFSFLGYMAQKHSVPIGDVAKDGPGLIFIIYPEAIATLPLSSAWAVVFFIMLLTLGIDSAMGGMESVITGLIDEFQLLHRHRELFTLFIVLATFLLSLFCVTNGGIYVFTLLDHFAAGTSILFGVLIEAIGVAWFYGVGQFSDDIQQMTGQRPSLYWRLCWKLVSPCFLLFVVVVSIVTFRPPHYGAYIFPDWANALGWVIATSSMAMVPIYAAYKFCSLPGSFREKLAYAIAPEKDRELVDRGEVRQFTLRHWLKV

Mu-type opioid receptor = Mu-type opioid receptor (Homo sapiens, UniProt P35372); test: DRUGMATRIX: Opiate mu (OP3, MOP) radioligand binding (ligand: [3H] Diprenorphine); format: cell membranes, CHO-K1, Membrane; conditions: Not Active = under 50% inhibition at 10 µM
Mu-type opioid receptor, sequence (P35372 whole entry): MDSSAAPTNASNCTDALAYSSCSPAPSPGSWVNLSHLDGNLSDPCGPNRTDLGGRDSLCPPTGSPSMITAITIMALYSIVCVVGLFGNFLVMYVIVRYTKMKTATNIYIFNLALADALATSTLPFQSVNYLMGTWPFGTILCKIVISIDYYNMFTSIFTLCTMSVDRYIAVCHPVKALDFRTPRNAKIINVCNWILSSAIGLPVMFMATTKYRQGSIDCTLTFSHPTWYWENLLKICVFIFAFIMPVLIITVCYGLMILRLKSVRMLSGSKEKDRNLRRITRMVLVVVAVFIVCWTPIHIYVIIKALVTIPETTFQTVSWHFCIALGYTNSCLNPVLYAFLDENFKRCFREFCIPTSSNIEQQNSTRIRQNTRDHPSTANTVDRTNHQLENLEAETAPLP

[3] = DRUGMATRIX: ATPase, Na+/K+ enzyme inhibition (substrate: ATP); format: tissue-based, Sus scrofa, Heart; conditions: Not Active = under 50% inhibition at 10 µM
[4] = biological target: T1, Vasoactive intestinal polypeptide receptor 1 (Homo sapiens, UniProt P32241); format: cell membranes, Membrane; conditions: ht-29; note: in other assays of this panel Not Active means under 50% inhibition at 10 µM
T1 sequence (P32241 whole entry): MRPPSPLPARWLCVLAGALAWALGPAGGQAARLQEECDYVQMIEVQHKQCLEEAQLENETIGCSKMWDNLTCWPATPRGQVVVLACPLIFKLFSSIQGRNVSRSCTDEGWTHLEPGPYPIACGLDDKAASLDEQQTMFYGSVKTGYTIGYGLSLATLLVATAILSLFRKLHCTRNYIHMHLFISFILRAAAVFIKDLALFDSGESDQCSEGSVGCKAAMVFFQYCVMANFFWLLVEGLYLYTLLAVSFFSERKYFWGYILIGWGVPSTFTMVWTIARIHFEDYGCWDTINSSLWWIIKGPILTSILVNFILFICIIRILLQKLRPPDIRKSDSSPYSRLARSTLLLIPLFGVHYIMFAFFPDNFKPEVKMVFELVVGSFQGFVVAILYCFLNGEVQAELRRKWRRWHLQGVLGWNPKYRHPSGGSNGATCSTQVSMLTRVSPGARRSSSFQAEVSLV

D(4) dopamine receptor = biological target: T2, D(4) dopamine receptor (Homo sapiens, UniProt P21917); test: DRUGMATRIX: Dopamine D4.2 radioligand binding (ligand: [3H] Spiperone); format: cell membranes, CHO-K1, Membrane; conditions: cho-k1; Not Active = under 50% inhibition at 10 µM
T2 sequence (P21917 whole entry): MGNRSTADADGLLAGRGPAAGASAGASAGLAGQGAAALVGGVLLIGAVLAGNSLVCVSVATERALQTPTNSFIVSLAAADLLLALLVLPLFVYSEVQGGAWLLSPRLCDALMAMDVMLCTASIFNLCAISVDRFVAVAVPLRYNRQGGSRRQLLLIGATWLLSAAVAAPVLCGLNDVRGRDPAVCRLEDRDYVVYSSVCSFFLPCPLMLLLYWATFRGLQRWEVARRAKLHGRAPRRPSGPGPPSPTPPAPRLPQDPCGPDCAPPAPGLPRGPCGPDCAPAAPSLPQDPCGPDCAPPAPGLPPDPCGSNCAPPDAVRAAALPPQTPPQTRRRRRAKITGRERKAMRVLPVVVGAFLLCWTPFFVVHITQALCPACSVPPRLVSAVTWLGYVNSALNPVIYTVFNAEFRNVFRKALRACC

[5] = biological target: Prostaglandin G/H synthase 1 (Homo sapiens, UniProt P23219); test: biochemical; format: tissue-based, Platelet; conditions: platelet;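 note: inhibition of COX-1 enzyme activity, with arachidonic acid supplied as substrate; in other assays of this panel Not Active means under 50% inhibition at 10 µM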
Prostaglandin G/H synthase 1, sequence (P23219 whole entry): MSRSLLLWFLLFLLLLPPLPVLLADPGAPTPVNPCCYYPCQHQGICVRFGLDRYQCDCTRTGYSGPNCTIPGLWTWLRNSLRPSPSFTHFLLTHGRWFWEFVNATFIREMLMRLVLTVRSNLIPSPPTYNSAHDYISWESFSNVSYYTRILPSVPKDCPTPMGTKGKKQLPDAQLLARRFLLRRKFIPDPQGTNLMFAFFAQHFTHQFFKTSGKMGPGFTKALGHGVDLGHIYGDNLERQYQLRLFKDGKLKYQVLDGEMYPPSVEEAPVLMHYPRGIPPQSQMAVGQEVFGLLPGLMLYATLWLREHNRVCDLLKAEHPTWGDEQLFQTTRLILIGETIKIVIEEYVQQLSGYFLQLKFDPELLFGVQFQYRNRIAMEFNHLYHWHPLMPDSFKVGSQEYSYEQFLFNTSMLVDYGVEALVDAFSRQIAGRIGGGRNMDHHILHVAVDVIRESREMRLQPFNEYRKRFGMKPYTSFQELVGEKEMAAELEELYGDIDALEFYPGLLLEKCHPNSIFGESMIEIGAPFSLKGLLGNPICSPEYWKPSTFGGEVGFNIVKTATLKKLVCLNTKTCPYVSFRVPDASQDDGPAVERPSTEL

Row | Compound | IC50 [1] | Ki [1] | IC50 ([2]; cho-k1) | IC50 (Mu-type opioid receptor; cho-k1) | IC50 [3] | Ki [3] | IC50 [4] | IC50 (D(4) dopamine receptor) | IC50 [5] | IC50 ([2]; read-out: IC50) [µM] | Ki ([2]; read-out: Ki) [µM] | IC50 ([3]; read-out: IC50) [µM] | Ki (Mu-type opioid receptor) [nM] | IC50 (Mu-type opioid receptor; read-out: IC50) [nM]
1 | CCC1(c2ccc(N)cc2)CCC(=O)NC1=O (configuration not stated) [AMINOGLUTETHIMIDE] | Not Active | Not Active | Not Active | Not Active | Not Active | Not Active | Not Active | Not Active | Not Active | – | – | – | – | –
2 | Nc1ncn([C@@H]2O[C@H](CO)[C@@H](O)[C@H]2O)c(=O)n1 [AZACITIDINE] | Not Active | Not Active | Not Active | Not Active | Not Active | Not Active | Not Active | Not Active | Not Active | – | – | – | – | –
3 | CN(C)C(=O)Oc1cc(OC(=O)N(C)C)cc(C(O)CNC(C)(C)C)c1 (configuration not stated) [BAMBUTEROL] | Not Active | Not Active | Not Active | Not Active | Not Active | Not Active | Not Active | Not Active | Not Active | – | – | – | – | –
4 | c1ccc2c(c1)c1cccc3ccc4cccc2c4c31 [BENZO[E]PYRENE] | Not Active | Not Active | Not Active | Not Active | Not Active | Not Active | Not Active | Not Active | Not Active | – | – | – | – | –
5 | CNCCc1ccccn1 [BETAHISTINE] | Not Active | Not Active | Not Active | Not Active | Not Active | Not Active | Not Active | Not Active | Not Active | – | – | – | – | –
6 | CC(C)C(Br)C(=O)NC(N)=O (configuration not stated) [BROMISOVALUM] | Not Active | Not Active | Not Active | Not Active | Not Active | Not Active | Not Active | Not Active | Not Active | – | – | – | – | –
7 | CCCC1O[C@@H]2C[C@H]3[C@@H]4CCC5=CC(=O)C=C[C@]5(C)[C@H]4[C@@H](O)C[C@]3(C)[C@]2(C(=O)CO)O1 (some centres not stated) [BUDESONIDE] | Not Active | Not Active | Not Active | Not Active | Not Active | Not Active | Not Active | Not Active | Not Active | – | – | – | – | –
8 | CN(Cc1ccc(C(C)(C)C)cc1)Cc1cccc2ccccc12 [BUTENAFINE] | Not Active | Not Active | Not Active | Not Active | Not Active | Not Active | Not Active | Not Active | Not Active | – | – | – | – | –
9 | C[C@H](CS)C(=O)N1CCC[C@H]1C(=O)O [CAPTOPRIL] | Not Active | Not Active | Not Active | Not Active | Not Active | Not Active | Not Active | Not Active | Not Active | – | – | – | – | –
10 | C[C@H](CCC(=O)O)[C@H]1CC[C@H]2[C@@H]3[C@H](O)C[C@@H]4C[C@H](O)CC[C@]4(C)[C@H]3C[C@H](O)[C@]12C [CHOLIC ACID] | Not Active | Not Active | Not Active | Not Active | Not Active | Not Active | Not Active | Not Active | Not Active | – | – | – | – | –
11 | Cc1cc(C2CCCCC2)n(O)c(=O)c1 [CICLOPIROX] | Not Active | Not Active | Not Active | Not Active | Not Active | Not Active | Not Active | Not Active | Not Active | – | – | – | – | –
12 | CC(C)(Oc1ccc(Cl)cc1)C(=O)O [CLOFIBRIC ACID] | Not Active | Not Active | Not Active | Not Active | Not Active | Not Active | Not Active | Not Active | Not Active | – | – | – | – | –
13 | Clc1cccc(Cl)c1NC1=NCCN1 [CLONIDINE] | Not Active | Not Active | Not Active | Not Active | Not Active | Not Active | Not Active | Not Active | Not Active | – | – | – | – | –
14 | Cc1cc(C(C#N)c2ccc(Cl)cc2)c(Cl)cc1NC(=O)c1cc(I)cc(I)c1O (configuration not stated) [CLOSANTEL] | Not Active | Not Active | – | Not Active | – | – | Not Active | Not Active | Not Active | 4.8 | 3.8 | 4.88 | – | –
15 | Cc1onc(-c2ccccc2Cl)c1C(=O)N[C@@H]1C(=O)N2[C@@H]1SC(C)(C)[C@@H]2C(=O)O [CLOXACILLIN] | Not Active | Not Active | Not Active | Not Active | Not Active | Not Active | Not Active | Not Active | Not Active | – | – | – | – | –
16 | CC1CC(OC(=O)C(O)c2ccccc2)CC(C)(C)C1 (configuration not stated) [CYCLANDELATE] | Not Active | Not Active | Not Active | Not Active | Not Active | Not Active | Not Active | Not Active | Not Active | – | – | – | – | –
17 | Cc1c2oc3c(C)ccc(C(=O)N[C@@H]4C(=O)N[C@H](C(C)C)C(=O)N5CCC[C@H]5C(=O)N(C)CC(=O)N(C)[C@@H](C(C)C)C(=O)O[C@@H]4C)c3nc-2c(C(=O)N[C@@H]2C(=O)N[C@H](C(C)C)C(=O)N3CCC[C@H]3C(=O)N(C)CC(=O)N(C)[C@@H](C(C)C)C(=O)O[C@@H]2C)c(N)c1=O [DACTINOMYCIN] (I: T[dV]P[Sar][NMeV] / II: T[dV]P[Sar][NMeV]; ester I:1-I:C, II:1-II:C; linker I:N-II:N via Actinocin(1to9)) | Not Active | Not Active | Not Active | Not Active | Not Active | Not Active | Not Active | Not Active | Not Active | – | – | – | – | –
18 | Cc1c(O)c(=O)ccn1C [DEFERIPRONE] | Not Active | Not Active | Not Active | Not Active | Not Active | Not Active | Not Active | Not Active | Not Active | – | – | – | – | –
19 | O=c1oc2ccccc2c(O)c1Cc1c(O)c2ccccc2oc1=O [DICUMAROL] | Not Active | Not Active | Not Active | Not Active | Not Active | Not Active | Not Active | Not Active | Not Active | – | – | – | – | –
20 | C[C@H]1O[C@@H](O[C@H]2[C@@H](O)C[C@H](O[C@H]3[C@@H](O)C[C@H](O[C@H]4CC[C@@]5(C)[C@H](CC[C@@H]6[C@@H]5C[C@@H](O)[C@]5(C)[C@@H](C7=CC(=O)OC7)CC[C@]65O)C4)O[C@@H]3C)O[C@@H]2C)C[C@H](O)[C@@H]1O [DIGOXIN] | Not Active | Not Active | Not Active | Not Active | – | – | Not Active | Not Active | Not Active | – | – | 1.65 | – | –
21 | CC(C)[C@@]1(NC(=O)[C@@H]2C[C@@H]3c4cccc5[nH]cc(c45)C[C@H]3N(C)C2)O[C@@]2(O)[C@@H]3CCCN3C(=O)[C@H](Cc3ccccc3)N2C1=O.CS(=O)(=O)O [DIHYDROERGOCRISTINE MESYLATE] | Not Active | Not Active | Not Active | – | Not Active | Not Active | Not Active | Not Active | Not Active | – | – | – | 345 | 850
22 | CC(=O)O[C@@]12CO[C@@H]1C[C@H](O)[C@@]1(C)C(=O)[C@H](O)C3=C(C)[C@@H](OC(=O)[C@H](O)[C@@H](NC(=O)OC(C)(C)C)c4ccccc4)C[C@@](O)([C@@H](OC(=O)c4ccccc4)[C@H]21)C3(C)C.O.O.O [DOCETAXEL] | Not Active | Not Active | Not Active | Not Active | Not Active | Not Active | Not Active | Not Active | Not Active | – | – | – | – | –
23 | C[C@H]1c2cccc(O)c2C(=O)C2=C(O)[C@]3(O)C(=O)C(C(N)=O)=C(O)[C@@H](N(C)C)[C@@H]3[C@@H](O)[C@@H]21.O [DOXYCYCLINE] | Not Active | Not Active | Not Active | Not Active | Not Active | Not Active | Not Active | Not Active | Not Active | – | – | – | – | –
